Source: patent publication US20020193377A1, “Quinazolines as MMP-13 inhibitors” (priority 2001, published 2002)

Assays:
[1] = test system: MMP-1, MMP-2, MMP-3, MMP-9 and MMP-13; conditions: prior art, non-selective inhibitors; cited from earlier work
[2] = molecular target: T1, human collagenase-3 catalytic domain enzyme (MMP13) (Homo sapiens, UniProt P45452); test: MMP13CD Thiopeptolide Assay; assay type: biochemical
T1 construct: human collagenase-3 catalytic domain enzyme
Procedure: MMP13CD Thiopeptolide Assay: Proteolysis of the thiopeptolide substrate Ac-Pro-Leu-Gly-thioester-Leu-Leu-Gly-OEt is used as the primary screen to determine IC50 values for MMP13 inhibitors. A 100 μl reaction contains 50 mM HEPES, 10 mM CaCl2, pH 7.0 (RT), 1 mM 5,5′-dithiobis(2-nitrobenzoic acid) (DTNB), 100 μM substrate, inhibitor in 2.0% DMSO and 2.5 nM human collagenase-3 catalytic domain enzyme. Inhibitors are screened from 100 μM to 0.5 nM. […] Percentage of control velocity in inhibited treatments is plotted against inhibitor concentration to calculate IC50 values.

Row | SMILES | melting point | inhibition of several MMPs (in words) [1] | IC50 [2]
1 | Cn1c(=O)n(Cc2ccccc2)c(=O)c2cc(C(=O)OC/C=C/c3ccncc3)ccc21 | 147 °C | – | –
2 | Cn1c(=O)n(Cc2ccccc2)c(=O)c2cc(C(=O)OC/C=C/c3cccnc3)ccc21 | 184 °C | – | –
3 | COc1ccc(CNC(=O)c2ccc3c(c2)c(=O)n(Cc2ccc(C(=O)OCCN(C)C)c(OC)c2)c(=O)n3C)cc1 | 130 °C | – | –
4 | COc1ccc(CNC(=O)c2ccc3c(c2)c(=O)n(Cc2ccc(-c4noc(=O)[nH]4)cc2)c(=O)n3C)cc1 | 305 °C | – | –
5 | Cn1c(=O)n(Cc2ccc(F)cc2)c(=O)c2cc(C(=O)NCc3cccnc3)ccc21 | 166 to 168 °C | – | –
6 | Cn1c(=O)n(Cc2ccc(Cl)cc2)c(=O)c2cc(C(=O)NCc3cccnc3)ccc21 | 173 to 175 °C | – | –
7 | COc1cccc(CNC(=O)c2ccc3c(c2)c(=O)n(Cc2ccc(Cl)cc2)c(=O)n3C)c1 | 178 to 180 °C | – | –
8 | COc1cc(CNC(=O)c2ccc3c(c2)c(=O)n(Cc2ccc(F)cc2)c(=O)n3C)ccn1 | 174 to 175 °C | – | –
9 | COc1ccc(CNC(=O)c2ccc3c(c2)c(=O)n(Cc2ccc(C4(C(=O)OC(C)(C)C)CC4)cc2)c(=O)n3C)cc1 | 148 to 149 °C | – | –
10 | COc1ccc(CNC(=O)c2ccc3c(c2)c(=O)n(Cc2ccc(C4(C(=O)O)CC4)cc2)c(=O)n3C)cc1 | 179 to 181 °C | – | –
11 | Cn1c(=O)n(Cc2ccccc2)c(=O)c2cc(SCc3ccccc3)ccc21 | 117 to 118 °C | – | –
12 | Cn1c(=O)n(Cc2ccccc2)c(=O)c2cc([S+]([O-])Cc3ccccc3)ccc21 (stereo not shown) | 182 to 183 °C | – | –
13 | Cn1c(=O)n(Cc2ccccc2)c(=O)c2cc(S(=O)(=O)Cc3ccccc3)ccc21 | 173 to 175 °C | – | –
14 | CC1(C)SCCN(S(=O)(=O)c2ccc(Oc3ccncc3)cc2)[C@H]1C(=O)NO [AG-3340] | – | inhibit both MMP-1, MMP-2, MMP-3, MMP-9 and MMP-13 | –
15 | COc1ccc(S(=O)(=O)N(Cc2cccnc2)[C@@H](C(=O)NO)C(C)C)cc1 [CGS-27.023A] | – | inhibit both MMP-1, MMP-2, MMP-3, MMP-9 and MMP-13 | –
16 | O=C(NCc1ccc2c(c1)OCO2)c1ccc2[nH]c(=O)n(Cc3ccc4c(c3)OCO4)c(=O)c2c1 [Example 28, 3-(Benzo[1,3]dioxol-5-ylmethyl)-2,4-dioxo-1,2,3,4-tetrahydroquinazoline-6-carboxylic acid (benzo[1,3]dioxol-5-ylmethyl)amide] | 245.2 °C | – | 9 nM
17 | CNC(=O)c1ccc(Cn2c(=O)c3cc(C(=O)NCc4ccc(OC)cc4)ccc3n(C)c2=O)cc1 [Example 51, 1-Methyl-3-(4-methylcarbamoyl-benzyl)-2,4-dioxo-1,2,3,4-tetrahydro-quinazoline-6-carboxylic acid 4-methoxy-benzylamide] | – | – | 62 nM
18 | C=CCn1c(=O)c2cc(C(=O)NCc3ccc(OC)cc3)ccc2n(C)c1=O [Example 52, 3-Allyl-1-methyl-2,4-dioxo-1,2,3,4-tethydro-quinazoline-6-carboxylic acid 4-methoxy-benzylamiide] | – | – | 14 nM
